Key:
[1] = system: wide-type Phytophthora sojae; experiment: Growth on nourseothricin-containing V8 culture medium, control strain; type: cell-based; conditions: 50 μg/mL nourseothricin, grows on V8 medium without nourseothricin
Procedure: (§1) The 15 candidate transformants screened in Example 1 were transformed to the 50 μg/mL nourseothricin-containing V8 culture medium to observe the growth condition of the 15 candidate transformants, and the wide-type Phytophthora sojae is used as a control strain.

[2] = system: Avh109 gene complemented transformants of Phytophthora sojae (Nat1 gene as selection marker); experiment: Growth on nourseothricin-containing V8 culture medium, candidate transformants carrying the Nat1 gene; type: cell-based; conditions: 50 μg/mL nourseothricin; 15 candidate transformants with Nat1 gene
Procedure: (S2) After the centrifugation, the supernatant was discarded. Then 5 mL of PM culture medium were added into the centrifuge tube to resuspend the regenerated hypha. After that, 5 mL of 30 μg/mL nourseothricin-containing PM culture medium were added into the centrifuge tube, and mixed to be poured into a petri dish. Then the petri dish was subjected to drying, and culturing at 25° C. in dark for 3-4 days to perform primary screening.
(S3) The growth condition of hyphae on the surface of the petri dish was observed. 10 mL of 50 μg/mL nourseothricin-containing V8 culture medium were added into the petri dish, and cultured at 25° C. in the dark for 3-4 days to perform secondary screening.
(S4) The growth condition of hyphae on the surface of the petri dish was observed. The regenerated strain was transferred to the 50 μg/mL nourseothricin-containing V8 culture medium to perform tertiary screening. After three screenings in the presence of nourseothricin, 15 transformants were obtained, which were preliminarily considered to be complemented transformants (candidate transformants) for subsequent identification.
as §1

Phytophthora sojae = conditions: oomycete carrying encoding gene of mutated protein; cited from earlier work

nourseothricin
growth condition on nourseothricin-containing V8 medium [1]: not able to grow
growth condition on nourseothricin-containing V8 medium [2]: able to grow normally

Cc1cc(C(F)(F)F)nn1CC(=O)N1CCC(c2nc(C3=NOC(c4c(F)cccc4F)C3)cs2)CC1 (stereo not drawn) [oxathiapiprolin]
resistance to oxathiapiprolin induced in the oomycete by the mutated protein (Phytophthora sojae): more than 500 times

Reference: US20220170029A1, “APPLICATION OF NAT1 GENE AS SCREENING MARKER IN GENETIC TRANSFORMATION OF OOMYCETE” (priority 2021, published 2022)
